The subject of one assay is patients with migraine. The assay is described as follows: BHV3000-201: reduction in headache days (migraines) per month, treatment vs observation phase. Format: in vivo, human. From the text:
Study Design • Study Type: Interventional (Clinical Trial) • Estimated Enrollment: 2000 participants • Intervention Model: Single Group Assignment • Masking: None (Open Label) • Primary Purpose: Treatment • Official Title: A Multicenter, Open Label Long-Term Safety Study of BHV3000 in the Acute Treatment of Migraine • Actual Study Start Date: Aug. 30, 2017 • Estimated Primary Completion Date: July 2019 • Estimated Study Completion Date: July 2019 In addition to the interim safety analysis, data from subjects was assessed to determine reductions in the number of headache days per month.

Assay [1] deals with subjects with Acute Migraines. The assay is described as follows: BHV3000-301 Phase 3 trial, acute treatment of migraine: efficacy. Format: in vivo, human. The note with it: Study 301; P<0.0001. Here is the method: Clinical Trial—BHV3000-301: Phase 3: Double-Blind, Randomized, Placebo-Controlled, Safety and Efficacy Trial of BHV-3000 (Rimegepant) for the Acute Treatment of Migraine (ClinicalTrials.gov Identifier: NCT03235479). A phase 3 clinical study was conducted with 1490 participants, as follows. […] Pain freedom of rimegepant (75 mg tablet) compared with placebo in the acute treatment of migraine will be measured using the number of evaluable subjects that report no pain at 2 hours post-dose. [Time Frame: Two hours post dose] • Pain will be measured on a 4 point Likert scale (0=none, 1=mild, 2=moderate, 3=severe) • 2. Freedom from the most bothersome symptom (MBS) of rimegepant (75 mg tablet) compared with placebo will be measured using the number of evaluable subjects that report the absence of their MBS at 2 hours post-dose. [Time Frame: Two hours post dose] • The MBS (nausea, phonophobia or photophobia) will measured using a binary scale (0=absent, 1=present). […] [Time Frame: 2 hours -24 hours post-dose] • Sustained Pain Freedom as measured by a 4 point numeric rating scale (None, Mild, Moderate, Severe) • 2. […] [Time Frame: 2 hours post-dose] • Pain Relief as measured by a 4 point numeric rating scale (None, Mild, Moderate, Severe) • 5. […] Sustained Pain Relief as measured by a 4 point numeric rating scale (None, Mild, Moderate, Severe) • 9. […]

Turning to `N[C@@H]1c2cccnc2[C@H](OC(=O)N2CCC(n3c(=O)[nH]c4ncccc43)CC2)CC[C@H]1c1cccc(F)c1F` [Rimegepant, [(55,65,9R)-5-amino-6-(2,3-difluorophenyl)-6,7,8,9-tetrahydro-5H-cyclohepta[b]pyridin-9-yl]4-(2-oxo-3H-imidazo[4,5-b]pyridin-1-yl)piperidine-1-carboxylate], in the assay on patients with migraine (Overall, n 1731), the “subjects with > = 20.0% decrease, number” value stood at 683; the “subjects with > = 25.0% decrease, number” value came out at 602; the “subjects with > = 30.0% decrease, number” value came out at 523; the “subjects with > = 35.0% decrease, number” value turned out to be 442. In addition, in the assay with patients with migraine (Overall, n 1731), the “subjects with > = 40.0% decrease, number” value came out at 362; the “subjects with > = 45.0% decrease, number” value was determined as 287; the “subjects with > = 50.0% decrease, number” value is recorded as 226. Besides, in the assay on patients with migraine (Study 201), the “onset of reductions in the mean number of headache days per month” value was “as early as the first month”. The “patients achieving normal function at 2 hours (functional disability) versus placebo” value in assay [1] is listed as “greater proportion”.

The values are drawn from patent publication US20210000814A1, “RIMEGEPANT FOR CGRP RELATED DISORDERS” (Biohaven Pharmaceutical Holding Company Ltd., priority 2018, published 2021).
